Tests used:
[1] = test system: Dirofilaria immitis microfilariae; assay: In vitro assay 3: Dirofilaria immitis microfilariae (DIROIM L1), motility; conditions: 72 h, reduction of motility vs negative control, 72 h incubation
C. elegans Slo-1a = C. elegans Slo-1a (Caenorhabditis elegans, UniProt Q95V25); assay: In vitro assay 1: C. elegans Slo-1a, action at a recombinant C. elegans CHO cell line (membrane potential measurement)
[2] = log P by HPLC on reversed phase columns (Method L0; [a] acidic, [b] neutral range)
Procedure: Calibration was done with straight-chain alkan-2-ones (with 3 to 16 carbon atoms) with known log P values (measurement of log P values using retention times with linear interpolation between successive alkanones). Lambda-max-values were determined using UV-spectra from 200 nm to 400 nm and the peak values of the chromatographic signals.

C. elegans Slo-1a, sequence (Q95V25 whole entry): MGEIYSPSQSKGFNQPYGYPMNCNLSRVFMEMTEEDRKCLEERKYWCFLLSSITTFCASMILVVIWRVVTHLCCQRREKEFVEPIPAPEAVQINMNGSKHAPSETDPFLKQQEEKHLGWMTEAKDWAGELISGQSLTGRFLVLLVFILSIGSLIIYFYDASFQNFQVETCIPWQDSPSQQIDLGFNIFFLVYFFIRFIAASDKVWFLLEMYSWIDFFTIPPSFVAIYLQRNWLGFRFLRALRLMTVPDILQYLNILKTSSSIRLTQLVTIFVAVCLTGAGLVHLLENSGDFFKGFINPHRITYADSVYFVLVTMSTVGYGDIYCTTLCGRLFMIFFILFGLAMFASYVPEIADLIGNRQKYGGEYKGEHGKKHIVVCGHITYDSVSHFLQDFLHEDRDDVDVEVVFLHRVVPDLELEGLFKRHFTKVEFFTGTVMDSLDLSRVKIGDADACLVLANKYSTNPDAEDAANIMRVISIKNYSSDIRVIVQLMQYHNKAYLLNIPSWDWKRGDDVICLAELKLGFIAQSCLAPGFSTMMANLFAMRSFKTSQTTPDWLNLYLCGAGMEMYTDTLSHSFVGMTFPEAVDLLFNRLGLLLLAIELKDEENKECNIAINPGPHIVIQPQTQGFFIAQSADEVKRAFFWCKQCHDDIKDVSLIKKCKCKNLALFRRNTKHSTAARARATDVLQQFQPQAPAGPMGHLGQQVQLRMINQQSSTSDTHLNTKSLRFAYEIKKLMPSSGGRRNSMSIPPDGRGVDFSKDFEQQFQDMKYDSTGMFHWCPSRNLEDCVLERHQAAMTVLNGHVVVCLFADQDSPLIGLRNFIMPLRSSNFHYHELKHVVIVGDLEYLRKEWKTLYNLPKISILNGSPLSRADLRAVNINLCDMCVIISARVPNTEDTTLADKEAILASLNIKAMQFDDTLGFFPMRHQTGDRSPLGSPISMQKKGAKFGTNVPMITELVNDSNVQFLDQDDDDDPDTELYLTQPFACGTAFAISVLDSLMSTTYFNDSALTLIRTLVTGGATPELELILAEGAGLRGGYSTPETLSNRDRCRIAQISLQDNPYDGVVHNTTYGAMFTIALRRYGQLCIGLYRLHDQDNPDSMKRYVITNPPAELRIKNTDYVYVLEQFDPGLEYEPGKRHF

SMILES | EC50 [1] | EC50 (C. elegans Slo-1a) | chromatographic logP [2]
COCc1cccc(-c2c(C(F)(F)F)nn3c(C(C)C)c(C(=O)N[C@H]4CCOc5ccccc54)cnc23)c1 [Example 142] | < 10 µg/mL | 79.4 nM | 4.6
CC(C)c1c(C(=O)N[C@H]2CCOc3ccccc32)cnc2c(-c3cc(Cl)cc(C(F)(F)F)c3)c(C(F)(F)F)nn12 [Example 143] | < 10 µg/mL | 12.6 nM | 5.78
COCc1cccc(-c2c(C(F)(F)F)nn3c(C(C)C)c(C(=O)N[C@H]4CCc5ccccc54)cnc23)c1 [Example 144] | < 10 µg/mL | 158 nM | 4.87
Cc1nn2c(C(C)C)c(C(=O)N[C@H]3CCCc4ccccc43)cnc2c1-c1cccc(C(F)F)c1 [Example 145] | < 10 µg/mL | 31.6 nM | 4.93
Cc1nn2c(C(C)C)c(C(=O)N[C@H]3CCCc4ccccc43)cnc2c1-c1cccc2c1OC(F)(F)O2 [Example 146] | < 0.1 µg/mL | 25.1 nM | 5.47
Cc1nn2c(C(C)C)c(C(=O)N[C@H]3CCCc4ccccc43)cnc2c1-c1ccc2c(c1)OC(F)(F)O2 [Example 148] | < 10 µg/mL | 39.8 nM | 5.59
CC(C)c1c(C(=O)N[C@H]2CCc3ccccc32)cnc2c(-c3cccc(OC(F)(F)F)c3)c(C(F)(F)F)nn12 [Example 149] | < 10 µg/mL | 63.1 nM | 5.55
CC(C)c1c(C(=O)N[C@H]2CCc3ccccc32)cnc2c(-c3cc(Cl)cc(C(F)(F)F)c3)c(C(F)(F)F)nn12 [Example 150] | < 10 µg/mL | 50.1 nM | 6.22
Cc1nn2c(C(C)C)c(C(=O)N[C@H]3CCc4ccccc43)cnc2c1-c1cccc(C(F)F)c1 [Example 151] | < 1 µg/mL | 31.6 nM | 4.67
CC(C)c1c(C(=O)N[C@H]2CCc3ccccc32)cnc2c(-c3cncc(F)c3)c(C(F)(F)F)nn12 [Example 155] | < 10 µg/mL | 3160 nM | 4.25
CC(C)c1c(C(=O)N[C@H]2CCc3ccccc32)cnc2c(-c3cncc(Cl)c3)c(C(F)(F)F)nn12 [Example 156] | < 10 µg/mL | 631 nM | 4.7
CC(C)c1c(C(=O)N[C@H]2CCc3ccccc32)cnc2c(-c3cccc(F)c3)c(C(F)(F)F)nn12 [Example 157] | < 10 µg/mL | 100 nM | 5.02
CC(C)c1c(C(=O)N[C@H]2CCc3ccccc32)cnc2c(-c3ccccc3F)c(C(F)(F)F)nn12 [Example 158] | < 10 µg/mL | 158 nM | 4.76
CC(C)c1c(C(=O)N[C@H]2CCc3ccccc32)cnc2c(-c3cc(F)c(F)c(F)c3)c(C(F)(F)F)nn12 [Example 159] | < 10 µg/mL | 1000 nM | 5.4
COc1cc(-c2c(C(F)(F)F)nn3c(C(C)C)c(C(=O)N[C@H]4CCc5ccccc54)cnc23)ccc1F [Example 160] | < 10 µg/mL | 100 nM | 4.89
Cc1nn2c(C(C)C)c(C(=O)N[C@H]3CCc4ccccc43)cnc2c1-c1ccccc1 [Example 174] | < 0.1 µg/mL | 15.8 nM | 4.59
Cc1nn2c(C(C)C)c(C(=O)N[C@H]3CCCc4ccccc43)cnc2c1-c1ccccc1 [Example 175] | < 10 µg/mL | 63.1 nM | 4.94
Cc1nn2c(C(C)C)c(C(=O)N[C@H]3CCOc4ccccc43)cnc2c1-c1ccccc1 [Example 176] | < 0.1 µg/mL | 12.6 nM | 4.28
COc1cccc(-c2c(C)nn3c(C(C)C)c(C(=O)N[C@H]4CCc5ccccc54)cnc23)n1 [Example 177, (S)—N-(2,3-Dihydro-1H-inden-1-yl)-7-isopropyl-3-(6-methoxypyridin-2-yl)-2-methylpyrazolo[1,5-a]pyrimidine-6-carboxamide] | < 10 µg/mL | 158 nM | 4.89
Cc1nn2c(C(C)C)c(C(=O)N[C@H]3CCc4ccccc43)cnc2c1-c1cccc(F)n1 [Example 178] | < 10 µg/mL | 794 nM | 4.6
Cc1nn2c(C(C)C)c(C(=O)N[C@H]3CCc4ccccc43)cnc2c1-c1cccc(C(F)(F)F)n1 [Example 179] | < 10 µg/mL | 398 nM | 5.39
Cc1nn2c(C(C)C)c(C(=O)N[C@H]3CCOc4ccccc43)cnc2c1-c1ccc(Cl)cc1Cl [Example 180] | < 0.1 µg/mL | 7.94 nM | 5.02
Cc1nn2c(C(C)C)c(C(=O)N[C@H]3CCc4ccccc43)cnc2c1-c1ccc(Cl)cc1Cl [Example 181] | < 0.1 µg/mL | 12.6 nM | 5.31
Cc1nn2c(C(C)C)c(C(=O)N[C@H]3CCCc4ccccc43)cnc2c1-c1ccc(Cl)cc1Cl [Example 182] | < 1 µg/mL | 12.6 nM | 5.59

— patent US11001590B2, “Pyrazolopyrimidine derivatives” (BAYER ANIMAL HEALTH GMBH, priority 2016, dated 2021)
